Experiments:
[1] = biological target: P180C/P185C PTP1B (protein tyrosine phosphatase 1B) (Homo sapiens, UniProt P18031, P180C/P185C); assay: biochemical
[2] = biological target: wild-type PTP1B (protein tyrosine phosphatase 1B) (Homo sapiens, UniProt P18031); assay: biochemical
[3] = biological target: T1, P180C/E186C PTP1B (protein tyrosine phosphatase 1B) (Homo sapiens, UniProt P18031, E186C/P180C); assay: biochemical
T1 sequence (P18031 1-435 P180C/E186C): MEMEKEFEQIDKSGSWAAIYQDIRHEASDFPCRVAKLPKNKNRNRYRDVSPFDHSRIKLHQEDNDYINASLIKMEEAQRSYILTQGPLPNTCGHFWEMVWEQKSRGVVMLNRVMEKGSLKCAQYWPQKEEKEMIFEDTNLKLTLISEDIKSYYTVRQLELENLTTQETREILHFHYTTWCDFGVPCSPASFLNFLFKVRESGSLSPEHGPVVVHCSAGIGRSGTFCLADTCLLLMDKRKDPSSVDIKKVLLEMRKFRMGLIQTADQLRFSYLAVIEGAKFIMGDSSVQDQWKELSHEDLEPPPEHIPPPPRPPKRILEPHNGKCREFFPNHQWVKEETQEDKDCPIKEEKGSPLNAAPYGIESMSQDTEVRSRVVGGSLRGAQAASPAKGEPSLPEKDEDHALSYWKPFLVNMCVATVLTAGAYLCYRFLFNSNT

[4] = biological target: T1, P180C/E186C PTP1B (protein tyrosine phosphatase 1B); assay: pNPP phosphatase assay with purified enzyme; type: biochemical

Sequence of P180C/P185C PTP1B (protein tyrosine phosphatase 1B) (P18031 1-321 P180C/P185C limits assumed): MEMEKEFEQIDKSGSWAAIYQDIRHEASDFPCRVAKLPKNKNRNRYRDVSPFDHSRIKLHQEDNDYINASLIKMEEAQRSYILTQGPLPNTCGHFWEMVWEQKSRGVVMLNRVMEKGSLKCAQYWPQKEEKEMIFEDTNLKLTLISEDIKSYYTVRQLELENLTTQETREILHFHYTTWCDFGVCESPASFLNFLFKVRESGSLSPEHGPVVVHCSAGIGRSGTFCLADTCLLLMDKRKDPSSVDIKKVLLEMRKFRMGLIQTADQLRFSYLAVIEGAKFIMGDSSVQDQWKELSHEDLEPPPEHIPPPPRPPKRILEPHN
Sequence of wild-type PTP1B (protein tyrosine phosphatase 1B) (P18031 1-321 limits assumed): as the sequence (P18031 1-321 P180C/P185C limits assumed) above, with C180P, C185P counted along it

O=[N+]([O-])c1ccc(OP(=O)(O)O)cc1 [para-nitrophenyl phosphate]
Km [1]: 2030 ± 250 µM
Km [2]: 2290 ± 210 µM
Km [3]: 980 ± 90 µM

O=C1OC2(c3ccccc31)c1ccc(O)c([As]3SCCS3)c1Oc1c2ccc(O)c1[As]1SCCS1 [FlAsH-EDT2, 4′,5′-bis(1,3,2-dithioarsolan-2-yl)fluorescein]
IC50 [4]: ~130 nM
